Data published in ChEMBL document CHEMBL3885881, “DrugMatrix”.

Species on record: Rattus norvegicus
Assay: DrugMatrix - Regimen: Daily Repeat
Type: toxicity, organism-based, Sprague-Dawley
Set-up: regimen Daily Repeat, gender Male, age 6-8 weeks
Settings: in vivo, po, route oral GAVAGE, vehicle .5 % CMC; for ABSOLUTE BASOPHIL / ABSOLUTE EOSINOPHIL / ABSOLUTE LYMPHOCYTE / ABSOLUTE MONOCYTE / ABSOLUTE SEGMENTED NEUTROPHIL / BASOPHIL / EOSINOPHIL / ERYTHROCYTE COUNT / HEMATOCRIT / HEMOGLOBIN / LEUKOCYTE COUNT / LYMPHOCYTE / MEAN CORPUSCULAR HEMOGLOBIN / MEAN CORPUSCULAR HEMOGLOBIN CONCENTRATION / MEAN CORPUSCULAR VOLUME / MONOCYTE / NEUTROPHIL / NUCLEATED RED BLOOD CELLS / PLATELET COUNT: tissue Blood; for ALANINE AMINOTRANSFERASE / ALBUMIN / ALKALINE PHOSPHATASE / ASPARTATE AMINOTRANSFERASE / BLOOD UREA NITROGEN / CARBON DIOXIDE / CHLORIDE / CHOLESTEROL / CREATINE PHOSPHOKINASE / CREATININE / GLUCOSE / LACTATE DEHYDROGENASE / LIPASE / PHOSPHORUS / POTASSIUM / SODIUM / TOTAL BILIRUBIN / TOTAL PROTEIN / URIC ACID: tissue Plasma
[1] = 60 mg/kg, 72 h, dose level Low, time 3 day
[2] = 60 mg/kg, 120 h, dose level Low, time 5 day
[3] = 435 mg/kg, 72 h, dose level High, time 3 day
[4] = 435 mg/kg, 120 h, dose level High, time 5 day

## CCCCCCCCNC(C)C(O)c1ccc(SC(C)C)cc1 (configuration not stated) [SULOCTIDIL]
[1]
  ABSOLUTE BASOPHIL: 0 CELLS/uL
  ABSOLUTE EOSINOPHIL: 0 CELLS/uL
  ABSOLUTE LYMPHOCYTE: 12874.67 CELLS/uL
  ABSOLUTE MONOCYTE: 326.33 CELLS/uL
  ABSOLUTE SEGMENTED NEUTROPHIL: 2365.67 CELLS/uL
  BASOPHIL: 0%
  EOSINOPHIL: 0%
  ERYTHROCYTE COUNT: 5.66 x10E6/uL
  HEMATOCRIT: 34.83%
  HEMOGLOBIN: 13.2 G/DL
  LEUKOCYTE COUNT: 15.57 x10E3/uL
  LYMPHOCYTE: 81.33%
  MEAN CORPUSCULAR HEMOGLOBIN: 23.33 pg
  MEAN CORPUSCULAR HEMOGLOBIN CONCENTRATION: 37.93 G/DL
  MEAN CORPUSCULAR VOLUME: 61.57 fL
  MONOCYTE: 2.33%
  NEUTROPHIL: 16.33%
  NUCLEATED RED BLOOD CELLS: 0 /100WBC
  PLATELET COUNT: 1204 x10E3/uL
  ALANINE AMINOTRANSFERASE: 56.67 u/L
  ALBUMIN: 4.23 G/DL
  ALKALINE PHOSPHATASE: 425.33 u/L
  ASPARTATE AMINOTRANSFERASE: 91.67 u/L
  BLOOD UREA NITROGEN: 18 mg/dL
  CARBON DIOXIDE: 25 mmol/L
  CHLORIDE: 101.33 MEQ/L
  CHOLESTEROL: 80 mg/dL
  CREATINE PHOSPHOKINASE: 410.67 u/L
  CREATININE: 0.23 mg/dL
  GLUCOSE: 140.33 mg/dL
  LACTATE DEHYDROGENASE: 416.33 u/L
  LIPASE: 10.33 u/L
  PHOSPHORUS: 14.3 mg/dL
  POTASSIUM: 5.93 MEQ/L
  SODIUM: 145.47 MEQ/L
  TOTAL BILIRUBIN: 0.17 mg/dL
  TOTAL PROTEIN: 6.27 G/DL
  URIC ACID: 1.4 mg/dL
[2]
  ABSOLUTE BASOPHIL: 0 CELLS/uL
  ABSOLUTE EOSINOPHIL: 0 CELLS/uL
  ABSOLUTE LYMPHOCYTE: 10938.33 CELLS/uL
  ABSOLUTE MONOCYTE: 387.67 CELLS/uL
  ABSOLUTE SEGMENTED NEUTROPHIL: 1740.67 CELLS/uL
  BASOPHIL: 0%
  EOSINOPHIL: 0%
  ERYTHROCYTE COUNT: 5.48 x10E6/uL
  HEMATOCRIT: 33.37%
  HEMOGLOBIN: 13.03 G/DL
  LEUKOCYTE COUNT: 13.07 x10E3/uL
  LYMPHOCYTE: 83.67%
  MEAN CORPUSCULAR HEMOGLOBIN: 23.83 pg
  MEAN CORPUSCULAR HEMOGLOBIN CONCENTRATION: 39.1 G/DL
  MEAN CORPUSCULAR VOLUME: 61.07 fL
  MONOCYTE: 3%
  NEUTROPHIL: 13.33%
  NUCLEATED RED BLOOD CELLS: 0 /100WBC
  PLATELET COUNT: 1209.67 x10E3/uL
  ALANINE AMINOTRANSFERASE: 49.33 u/L
  ALBUMIN: 4.03 G/DL
  ALKALINE PHOSPHATASE: 405.67 u/L
  ASPARTATE AMINOTRANSFERASE: 76 u/L
  BLOOD UREA NITROGEN: 16.67 mg/dL
  CARBON DIOXIDE: 29.33 mmol/L
  CHLORIDE: 98.67 MEQ/L
  CHOLESTEROL: 65.67 mg/dL
  CREATINE PHOSPHOKINASE: 223 u/L
  CREATININE: 0.21 mg/dL
  GLUCOSE: 141.33 mg/dL
  LACTATE DEHYDROGENASE: 112 u/L
  LIPASE: 9.67 u/L
  PHOSPHORUS: 13.63 mg/dL
  POTASSIUM: 6.46 MEQ/L
  SODIUM: 145.77 MEQ/L
  TOTAL BILIRUBIN: 0.1 mg/dL
  TOTAL PROTEIN: 5.97 G/DL
  URIC ACID: 1.43 mg/dL
[3]
  ABSOLUTE BASOPHIL: 0 CELLS/uL
  ABSOLUTE EOSINOPHIL: 0 CELLS/uL
  ABSOLUTE LYMPHOCYTE: 12119.33 CELLS/uL
  ABSOLUTE MONOCYTE: 277.33 CELLS/uL
  ABSOLUTE SEGMENTED NEUTROPHIL: 1536.67 CELLS/uL
  BASOPHIL: 0%
  EOSINOPHIL: 0%
  ERYTHROCYTE COUNT: 5.33 x10E6/uL
  HEMATOCRIT: 33.43%
  HEMOGLOBIN: 12.9 G/DL
  LEUKOCYTE COUNT: 13.93 x10E3/uL
  LYMPHOCYTE: 87%
  MEAN CORPUSCULAR HEMOGLOBIN: 24.23 pg
  MEAN CORPUSCULAR HEMOGLOBIN CONCENTRATION: 38.6 G/DL
  MEAN CORPUSCULAR VOLUME: 62.83 fL
  MONOCYTE: 2%
  NEUTROPHIL: 11%
  NUCLEATED RED BLOOD CELLS: 0 /100WBC
  PLATELET COUNT: 1170.67 x10E3/uL
  ALANINE AMINOTRANSFERASE: 123 u/L
  ALBUMIN: 4.1 G/DL
  ALKALINE PHOSPHATASE: 384.67 u/L
  ASPARTATE AMINOTRANSFERASE: 116 u/L
  BLOOD UREA NITROGEN: 16 mg/dL
  CARBON DIOXIDE: 24.67 mmol/L
  CHLORIDE: 102 MEQ/L
  CHOLESTEROL: 71.33 mg/dL
  CREATINE PHOSPHOKINASE: 478.67 u/L
  CREATININE: 0.2 mg/dL
  GLUCOSE: 126.67 mg/dL
  LACTATE DEHYDROGENASE: 279.67 u/L
  LIPASE: 10.67 u/L
  PHOSPHORUS: 11.9 mg/dL
  POTASSIUM: 5.78 MEQ/L
  SODIUM: 145.13 MEQ/L
  TOTAL BILIRUBIN: 0.1 mg/dL
  TOTAL PROTEIN: 5.8 G/DL
  URIC ACID: 1.2 mg/dL
[4]
  ABSOLUTE BASOPHIL: 0 CELLS/uL
  ABSOLUTE EOSINOPHIL: 49.33 CELLS/uL
  ABSOLUTE LYMPHOCYTE: 11875.33 CELLS/uL
  ABSOLUTE MONOCYTE: 141.33 CELLS/uL
  ABSOLUTE SEGMENTED NEUTROPHIL: 1867.33 CELLS/uL
  BASOPHIL: 0%
  EOSINOPHIL: 0.33%
  ERYTHROCYTE COUNT: 6 x10E6/uL
  HEMATOCRIT: 36.07%
  HEMOGLOBIN: 13.93 G/DL
  LEUKOCYTE COUNT: 13.93 x10E3/uL
  LYMPHOCYTE: 85.33%
  MEAN CORPUSCULAR HEMOGLOBIN: 23.27 pg
  MEAN CORPUSCULAR HEMOGLOBIN CONCENTRATION: 38.67 G/DL
  MEAN CORPUSCULAR VOLUME: 60.1 fL
  MONOCYTE: 1%
  NEUTROPHIL: 13.33%
  NUCLEATED RED BLOOD CELLS: 0 /100WBC
  PLATELET COUNT: 1140 x10E3/uL
  ALANINE AMINOTRANSFERASE: 337 u/L
  ALBUMIN: 3.63 G/DL
  ALKALINE PHOSPHATASE: 249.33 u/L
  ASPARTATE AMINOTRANSFERASE: 188 u/L
  BLOOD UREA NITROGEN: 13.67 mg/dL
  CARBON DIOXIDE: 25 mmol/L
  CHLORIDE: 105 MEQ/L
  CHOLESTEROL: 25 mg/dL
  CREATINE PHOSPHOKINASE: 1012.33 u/L
  CREATININE: 0.12 mg/dL
  GLUCOSE: 128.67 mg/dL
  LACTATE DEHYDROGENASE: 213 u/L
  LIPASE: 8.67 u/L
  PHOSPHORUS: 10.37 mg/dL
  POTASSIUM: 5.67 MEQ/L
  SODIUM: 144.2 MEQ/L
  TOTAL BILIRUBIN: 0.1 mg/dL
  TOTAL PROTEIN: 5.1 G/DL
  URIC ACID: 1.23 mg/dL
